Experimental data taken from paper PMC5218480 (PLoS ONE, 2017).

System: MV-4-11 cells
Test: Gene expression microarray analysis (Affymetrix PrimeView) and GSEA
Format: cell-based, human
Parameters: RFU PODN (11730768_x_at) / Fold change /veh PODN (11730768_x_at) / RFU LINC00158 (11744669_a_at) / Fold change /veh LINC00158 (11744669_a_at) / RFU DUSP10 (11751237_a_at) / Fold change /veh DUSP10 (11751237_a_at) / RFU ID3 (11757404_x_at) / Fold change /veh ID3 (11757404_x_at) / RFU PLEKHG5 (11737974_s_at) / Fold change /veh PLEKHG5 (11737974_s_at) / RFU LRRC4B (11730491_at) / Fold change /veh LRRC4B (11730491_at) / RFU GIMAP4 (11747438_a_at) / Fold change /veh GIMAP4 (11747438_a_at) / RFU KRT8 (11758183_x_at) / Fold change /veh KRT8 (11758183_x_at) / RFU CNN1 (11734310_a_at) / Fold change /veh CNN1 (11734310_a_at) / RFU VPS37D (11726825_at) / Fold change /veh VPS37D (11726825_at) / RFU C10orf10 (11716522_x_at) / Fold change /veh C10orf10 (11716522_x_at) / RFU KIR2DL2 /// KIR2DL4 /// KIR2DL5A /// KIR2DL5B /// KIR2DS1 /// KIR2DS2 /// KIR2DS3 /// KIR2DS4 /// KIR3DL3 /// KIR3DL3 /// KIR3DS1 (11738374_at) / Fold change /veh KIR2DL2 /// KIR2DL4 /// KIR2DL5A /// KIR2DL5B /// KIR2DS1 /// KIR2DS2 /// KIR2DS3 /// KIR2DS4 /// KIR3DL3 /// KIR3DL3 /// KIR3DS1 (11738374_at) / RFU C1QL1 (11718748_at) / Fold change /veh C1QL1 (11718748_at) / RFU TMPRSS4 (11747572_a_at) / Fold change /veh TMPRSS4 (11747572_a_at) / RFU HAMP (11756126_x_at) / Fold change /veh HAMP (11756126_x_at) / RFU RNFT2 (11725882_a_at) / Fold change /veh RNFT2 (11725882_a_at) / RFU NR4A2 (11747474_a_at) / Fold change /veh NR4A2 (11747474_a_at) / RFU ABCC12 (11746883_a_at) / Fold change /veh ABCC12 (11746883_a_at) / RFU TMEM136 (11760407_x_at) / Fold change /veh TMEM136 (11760407_x_at) / RFU CLDN22 /// WWC2 (11732394_at) / Fold change /veh CLDN22 /// WWC2 (11732394_at) / RFU HLA-DPB1 (11760878_x_at) / Fold change /veh HLA-DPB1 (11760878_x_at) / RFU SPINT1 (11716480_a_at) / Fold change /veh SPINT1 (11716480_a_at) / RFU GAP43 (11754022_s_at) / Fold change /veh GAP43 (11754022_s_at) / RFU A4GNT (11735810_at) / Fold change /veh A4GNT (11735810_at) / RFU PRB3 (11715151_x_at) / Fold change /veh PRB3 (11715151_x_at) / RFU TUBB4B (11761932_at) / Fold change /veh TUBB4B (11761932_at) / RFU CAPN14 (11732068_a_at) / Fold change /veh CAPN14 (11732068_a_at) / RFU TMCC2 (11721928_a_at) / Fold change /veh TMCC2 (11721928_a_at) / RFU IRGQ (11745062_a_at) / Fold change /veh IRGQ (11745062_a_at) / RFU FAM174B (11720279_a_at) / Fold change /veh FAM174B (11720279_a_at) / RFU TMPRSS4 (11748680_a_at) / Fold change /veh TMPRSS4 (11748680_a_at) / RFU FAM212B (11763350_a_at) / Fold change /veh FAM212B (11763350_a_at) / RFU PLEKHG5 (11743358_a_at) / Fold change /veh PLEKHG5 (11743358_a_at) / RFU ZSCAN30 (11745921_a_at) / Fold change /veh ZSCAN30 (11745921_a_at) / RFU CMKLR1 (11741424_a_at) / Fold change /veh CMKLR1 (11741424_a_at) / RFU LOC101060620 /// MAPK8IP1 (11723275_at) / Fold change /veh LOC101060620 /// MAPK8IP1 (11723275_at) / RFU SPTSSB (11747773_x_at) / Fold change /veh SPTSSB (11747773_x_at) / RFU PRSS12 (11739890_at) / Fold change /veh PRSS12 (11739890_at) / RFU BIN1 (11741810_x_at) / Fold change /veh BIN1 (11741810_x_at) / RFU WNT11 (11732464_a_at) / Fold change /veh WNT11 (11732464_a_at) / RFU C10orf10 (11716521_a_at) / Fold change /veh C10orf10 (11716521_a_at) / RFU C5orf56 (11738089_at) / Fold change /veh C5orf56 (11738089_at) / RFU CYB561 (11721691_x_at) / Fold change /veh CYB561 (11721691_x_at) / RFU ANKRD19P (11752326_a_at) / Fold change /veh ANKRD19P (11752326_a_at) / RFU OR2T12 /// OR2T33 /// OR2T8 (11738714_s_at) / Fold change /veh OR2T12 /// OR2T33 /// OR2T8 (11738714_s_at) / RFU VCAN (11748164_a_at) / Fold change /veh VCAN (11748164_a_at) / RFU JSRP1 (11732532_at) / Fold change /veh JSRP1 (11732532_at) / RFU KRTAP10-11 (11738290_x_at) / Fold change /veh KRTAP10-11 (11738290_x_at) / RFU MYO3A (11730013_a_at) / Fold change /veh MYO3A (11730013_a_at) / RFU EBF3 (11725865_a_at) / Fold change /veh EBF3 (11725865_a_at) / RFU CAMK2N1 (11719241_x_at) / Fold change /veh CAMK2N1 (11719241_x_at) / RFU C5orf56 (11738088_a_at) / Fold change /veh C5orf56 (11738088_a_at) / RFU OLFML3 (11715873_a_at) / Fold change /veh OLFML3 (11715873_a_at) / RFU LOC100653217 /// NTM (11731650_a_at) / Fold change /veh LOC100653217 /// NTM (11731650_a_at) / RFU MAPK11 (11762145_a_at) / Fold change /veh MAPK11 (11762145_a_at) / RFU FIZ1 (11724087_x_at) / Fold change /veh FIZ1 (11724087_x_at) / RFU OASL (11726364_x_at) / Fold change /veh OASL (11726364_x_at) / RFU SOX15 (11748057_x_at) / Fold change /veh SOX15 (11748057_x_at) / RFU CD79A (11719716_a_at) / Fold change /veh CD79A (11719716_a_at) / RFU HIST1H1D (11736915_at) / Fold change /veh HIST1H1D (11736915_at) / RFU CASKIN2 (11723855_a_at) / Fold change /veh CASKIN2 (11723855_a_at) / RFU LOC730098 (11760151_x_at) / Fold change /veh LOC730098 (11760151_x_at) / RFU OR4N2 (11742367_at) / Fold change /veh OR4N2 (11742367_at) / RFU PRRT2 (11749266_a_at) / Fold change /veh PRRT2 (11749266_a_at) / RFU SNX32 (11753110_a_at) / Fold change /veh SNX32 (11753110_a_at) / RFU CDHR5 (11726645_a_at) / Fold change /veh CDHR5 (11726645_a_at) / RFU RCAN1 (11760418_a_at) / Fold change /veh RCAN1 (11760418_a_at) / RFU FAM167A (11723789_a_at) / Fold change /veh FAM167A (11723789_a_at) / RFU FAM26E (11764081_at) / Fold change /veh FAM26E (11764081_at) / RFU ISYNA1 (11749810_s_at) / Fold change /veh ISYNA1 (11749810_s_at) / RFU ACY1 (11761880_at) / Fold change /veh ACY1 (11761880_at) / RFU 11764098_at / Fold change /veh 11764098_at / RFU SAMD14 (11745864_x_at) / Fold change /veh SAMD14 (11745864_x_at) / RFU NPB (11741838_a_at) / Fold change /veh NPB (11741838_a_at) / RFU TMPRSS6 (11731388_a_at) / Fold change /veh TMPRSS6 (11731388_a_at) / RFU KRTAP10-2 (11738614_at) / Fold change /veh KRTAP10-2 (11738614_at) / RFU ARHGAP8 /// PRR5-ARHGAP8 (11727945_x_at) / Fold change /veh ARHGAP8 /// PRR5-ARHGAP8 (11727945_x_at) / RFU KRTAP5-7 /// NADSYN1 (11734609_at) / Fold change /veh KRTAP5-7 /// NADSYN1 (11734609_at) / RFU RASL12 (11751679_a_at) / Fold change /veh RASL12 (11751679_a_at) / RFU CDKN2B (11736163_a_at) / Fold change /veh CDKN2B (11736163_a_at) / RFU PRF1 (11729649_at) / Fold change /veh PRF1 (11729649_at) / RFU, ZNF638 /// ZNF638-IT1 / Fold change vs veh, ZNF638 /// ZNF638-IT1 / RFU, PANK3 / Fold change vs veh, PANK3 / RFU, SH3YL1 / Fold change vs veh, SH3YL1 / RFU, ZEB2 / Fold change vs veh, ZEB2 / RFU, NRIP1 / Fold change vs veh, NRIP1 / RFU, PTTG1IP / Fold change vs veh, PTTG1IP / RFU, CAPN2 / Fold change vs veh, CAPN2 / RFU, MED14 / Fold change vs veh, MED14 / RFU, SNORA58 / Fold change vs veh, SNORA58 / RFU, C1orf63 / Fold change vs veh, C1orf63 / RFU, LRRFIP1 / Fold change vs veh, LRRFIP1 / RFU, NDUFAF7 / Fold change vs veh, NDUFAF7 / RFU, SLC12A2 / Fold change vs veh, SLC12A2 / RFU, IBTK / Fold change vs veh, IBTK / RFU, ESF1 / Fold change vs veh, ESF1 / Fold change vs veh, TMEM50B / RFU, TAOK1 / Fold change vs veh, TAOK1 / RFU, ACBD3 / Fold change vs veh, ACBD3 / RFU, TMA16 / Fold change vs veh, TMA16 / RFU, RWDD3 / Fold change vs veh, RWDD3 / RFU, BCAT1 / Fold change vs veh, BCAT1 / RFU, EDEM3 / Fold change vs veh, EDEM3 / RFU, TMEM33 / Fold change vs veh, TMEM33 / RFU, WDR75 / Fold change vs veh, WDR75 / RFU, AHCTF1 / Fold change vs veh, AHCTF1 / RFU, TFRC / Fold change vs veh, TFRC / RFU, ZDHHC17 / Fold change vs veh, ZDHHC17 / RFU, NOM1 / Fold change vs veh, NOM1 / RFU, ARL8B / Fold change vs veh, ARL8B / RFU, ZBTB11 / Fold change vs veh, ZBTB11 / RFU, TAMM41 / Fold change vs veh, TAMM41 / RFU, KIAA1704 /// LOC100996395 / Fold change vs veh, KIAA1704 /// LOC100996395 / RFU, ING1 / Fold change vs veh, ING1 / RFU, TRMT61B / Fold change vs veh, TRMT61B / RFU, FUBP3 / Fold change vs veh, FUBP3 / RFU, TP53 / Fold change vs veh, TP53 / RFU, TNKS2 / Fold change vs veh, TNKS2 / RFU, ZFP14 / Fold change vs veh, ZFP14 / RFU, ACTR2 / Fold change vs veh, ACTR2 / RFU, PPP3R1 / Fold change vs veh, PPP3R1 / RFU, PIK3R1 / Fold change vs veh, PIK3R1 / RFU, HNRNPA1 / Fold change vs veh, HNRNPA1 / RFU, RNF170 / Fold change vs veh, RNF170 / RFU, ZNF28 / Fold change vs veh, ZNF28 / RFU, RNGTT / Fold change vs veh, RNGTT / RFU, OGT / Fold change vs veh, OGT / RFU, BRD1 / Fold change vs veh, BRD1 / RFU, MARS / Fold change vs veh, MARS / RFU, ZNF655 / Fold change vs veh, ZNF655 / RFU, FAHD1 / Fold change vs veh, FAHD1 / RFU, BDP1 / Fold change vs veh, BDP1 / RFU, LRRCC1 / Fold change vs veh, LRRCC1 / RFU, ARID1A / Fold change vs veh, ARID1A / RFU, ZNF146 / Fold change vs veh, ZNF146 / RFU, ZNF330 / Fold change vs veh, ZNF330 / RFU, GPN3 / Fold change vs veh, GPN3 / RFU, C9orf123 / Fold change vs veh, C9orf123 / RFU, N4BP2L2 / Fold change vs veh, N4BP2L2 / RFU, ARFIP1 / Fold change vs veh, ARFIP1 / RFU, FAM179B / Fold change vs veh, FAM179B / RFU, BCL10 / Fold change vs veh, BCL10 / RFU, UHRF1BP1L / Fold change vs veh, UHRF1BP1L / RFU, BET1 / Fold change vs veh, BET1 / RFU, CNOT2 / Fold change vs veh, CNOT2 / RFU, ZNF268 / Fold change vs veh, ZNF268 / Fold change vs veh, ZNF507 / RFU, DGCR2 / Fold change vs veh, DGCR2 / RFU, WDSUB1 / Fold change vs veh, WDSUB1 / Fold change vs veh, HSP90B1 /// MIR3652 / RFU, ADSS / Fold change vs veh, ADSS / RFU, GK / Fold change vs veh, GK / RFU, ZNF148 / Fold change vs veh, ZNF148 / RFU, TAF9 / Fold change vs veh, TAF9 / RFU, SLC1A5 / Fold change vs veh, SLC1A5 / RFU, SLMO2 / Fold change vs veh, SLMO2 / RFU, ABCC4 / Fold change vs veh, ABCC4 / RFU, LOC101060439 /// RAP1B / Fold change vs veh, LOC101060439 /// RAP1B / RFU, RFX7 / Fold change vs veh, RFX7 / RFU, GTPBP10 / Fold change vs veh, GTPBP10 / RFU, CNEP1R1 / Fold change vs veh, CNEP1R1 / RFU, BIVM-ERCC5 /// ERCC5 / Fold change vs veh, BIVM-ERCC5 /// ERCC5 / RFU, ILF3 / Fold change vs veh, ILF3 / RFU 11762660_at / Fold change /veh 11762660_at / RFU VCAN (11757783_s_at) / Fold change /veh VCAN (11757783_s_at) / RFU DDX43 (11728927_at) / Fold change /veh DDX43 (11728927_at) / RFU KRT8 (11758188_x_at) / Fold change /veh KRT8 (11758188_x_at) / RFU NKD1 (11759106_at) / Fold change /veh NKD1 (11759106_at) / RFU SRD5A1 (11742802_a_at) / Fold change /veh SRD5A1 (11742802_a_at) / RFU TPSAB1 /// TPSB2 (11721975_s_at) / Fold change /veh TPSAB1 /// TPSB2 (11721975_s_at) / RFU GSTM3 (11746129_a_at) / Fold change /veh GSTM3 (11746129_a_at) / RFU IL23R (11737362_x_at) / Fold change /veh IL23R (11737362_x_at) / RFU TMEM51 (11727254_a_at) / Fold change /veh TMEM51 (11727254_a_at) / RFU PIWIL2 (11732686_x_at) / Fold change /veh PIWIL2 (11732686_x_at) / RFU ORM1 (11744905_x_at) / Fold change /veh ORM1 (11744905_x_at) / RFU CCDC152 (11743942_at) / Fold change /veh CCDC152 (11743942_at) / RFU ECM1 (11717891_a_at) / Fold change /veh ECM1 (11717891_a_at) / RFU IL23R (11748794_a_at) / Fold change /veh IL23R (11748794_a_at) / RFU TNFAIP8L3 (11732012_x_at) / Fold change /veh TNFAIP8L3 (11732012_x_at) / RFU MBOAT4 (11741988_at) / Fold change /veh MBOAT4 (11741988_at) / RFU 11764193_at / Fold change /veh 11764193_at / RFU TMEM53 (11763286_at) / Fold change /veh TMEM53 (11763286_at) / RFU MAGEB2 (11727129_at) / Fold change /veh MAGEB2 (11727129_at) / RFU TMEM200A (11744735_a_at) / Fold change /veh TMEM200A (11744735_a_at) / RFU CCDC152 (11751479_a_at) / Fold change /veh CCDC152 (11751479_a_at) / RFU FAM211A (11726209_a_at) / Fold change /veh FAM211A (11726209_a_at) / RFU RGS16 (11746705_a_at) / Fold change /veh RGS16 (11746705_a_at) / RFU VCAN (11755009_s_at) / Fold change /veh VCAN (11755009_s_at) / RFU RHOB (11743442_s_at) / Fold change /veh RHOB (11743442_s_at) / RFU RGS16 (11720943_a_at) / Fold change /veh RGS16 (11720943_a_at) / RFU RGS16 (11720944_at) / Fold change /veh RGS16 (11720944_at) / RFU, VPS4B / Fold change vs veh, VPS4B / RFU, CREB1 / Fold change vs veh, CREB1 / RFU, DNAJC13 / Fold change vs veh, DNAJC13 / RFU, GNAQ / Fold change vs veh, GNAQ / RFU, CDK5R1 / Fold change vs veh, CDK5R1 / RFU, ZRANB3 / Fold change vs veh, ZRANB3 / RFU, CUL4A / Fold change vs veh, CUL4A / RFU, CCNY / Fold change vs veh, CCNY / RFU, UFL1 / Fold change vs veh, UFL1 / RFU, COG3 / Fold change vs veh, COG3 / RFU, DIAPH2 / Fold change vs veh, DIAPH2 / RFU, SKA2 / Fold change vs veh, SKA2 / RFU, AFF3 / Fold change vs veh, AFF3 / RFU, LMF1 / Fold change vs veh, LMF1 / RFU, IPO11 / Fold change vs veh, IPO11 / RFU, DFFB / Fold change vs veh, DFFB / RFU, FOXP1 / Fold change vs veh, FOXP1 / RFU, CARD8 / Fold change vs veh, CARD8 / RFU, STRN3 / Fold change vs veh, STRN3 / RFU, ADK / Fold change vs veh, ADK / RFU, RASSF2 / Fold change vs veh, RASSF2 / RFU, WIPF1 / Fold change vs veh, WIPF1 / RFU, LARP1B / Fold change vs veh, LARP1B / RFU, RASA1 / Fold change vs veh, RASA1 / RFU, RB1 / Fold change vs veh, RB1 / RFU, PPFIA1 / Fold change vs veh, PPFIA1 / RFU, MAT2A / Fold change vs veh, MAT2A / RFU, CCT5 / Fold change vs veh, CCT5 / RFU, WDR92 / Fold change vs veh, WDR92 / RFU, CUX1 / Fold change vs veh, CUX1 / RFU, TTC7A / Fold change vs veh, TTC7A / RFU, TMEM135 / Fold change vs veh, TMEM135 / RFU, DEPTOR / Fold change vs veh, DEPTOR / RFU, CPM / Fold change vs veh, CPM / RFU, DNAJB6 / Fold change vs veh, DNAJB6 / RFU, CACNA2D3 / Fold change vs veh, CACNA2D3 / RFU, DTX4 / Fold change vs veh, DTX4 / RFU, TFCP2 / Fold change vs veh, TFCP2 / RFU, GMCL1 /// GMCL1P1 / Fold change vs veh, GMCL1 /// GMCL1P1 / RFU, AEBP2 / Fold change vs veh, AEBP2 / RFU, SNHG1 /// SNORD22 /// SNORD25 /// SNORD26 /// SNORD27 /// SNORD28 /// SNORD29 /// SNORD31 / Fold change vs veh, SNHG1 /// SNORD22 /// SNORD25 /// SNORD26 /// SNORD27 /// SNORD28 /// SNORD29 /// SNORD31 / Fold change (Aza/veh), C12orf56 (ProbeSet 11735607_a_at) / Fold change (ACY-1035/veh), C12orf56 (ProbeSet 11735607_a_at) / Fold change (Aza/veh), FGFR1OP (ProbeSet 11751329_s_at) / Fold change (ACY-1035/veh), FGFR1OP (ProbeSet 11751329_s_at) / Fold change (Aza/veh), VPS36 (ProbeSet 11739960_a_at) / Fold change (ACY-1035/veh), VPS36 (ProbeSet 11739960_a_at) / RFU SYPL1 (11715823_x_at) / Fold change /veh SYPL1 (11715823_x_at) / RFU IGFBP7 (11715501_s_at) / Fold change /veh IGFBP7 (11715501_s_at) / RFU REEP3 (11722064_at) / Fold change /veh REEP3 (11722064_at) / RFU IGLL1 (11728026_x_at) / Fold change /veh IGLL1 (11728026_x_at): dose or concentration left out as unconfirmed
Details: ProbeSet 11732154_at; LIST B

Nc1ccc(-c2cccs2)cc1NC(=O)c1ccc2c(c1)cc(C1CC1)n2CCN1CCOCC1 [ACY-1035]
Fold change vs veh, OGT: 1.05
